Source: the supplement of paper PMC10307832

Tests used:
Test in all cases: relative viability (nuclei count vs DMSO), 5 days (fraction); higher = more cells survive
[1] = compound: CC1=C(C(=NN1)C)CC2=C(C3=C(S2)N(C(=O)N(C3=O)C)CC(C)C)C(=O)N4C[C@@H](CO4)O + O=C(c1cc(Cc2n[nH]c(=O)c3ccccc23)ccc1F)N1CCN(C(=O)C2CC2)CC1 [Olaparib] (partner 8 µM)
Summary of the method: (§1)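 Lung cancer cell lines were seeded in 1536-well plates and dosed by pin tool the next day, with either a single drug or a fixed anchor-drug dose combined with five library-drug doses (not always all listed) spaced in √10 steps. Five days later, one step fixed the cells and stained their nuclei (final 0.05% Triton X-100, 1% formaldehyde, 1 ug/ml Hoechst), and nuclei were counted on 4× images. Relative viability is the nuclei count in treated wells divided by the count in vehicle wells, and each value is the median of duplicate plates.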

[2] = compound: Cc1ccccc1C(C(=O)NC1CCCCC1)N(C(=O)Cn1ccnc1C)c1cccc(F)c1 [IDH-C35] + CC(=O)Nc1cccc(-n2c(=O)n(C3CC3)c(=O)c3c(Nc4ccc(I)cc4F)n(C)c(=O)c(C)c32)c1 [Trametinib] (partner 0.02 µM)
Summary of the method: as §1

[3] = compound: Cc1ccccc1C(C(=O)NC1CCCCC1)N(C(=O)Cn1ccnc1C)c1cccc(F)c1 [IDH-C35] + COc1cccc2cc(-c3nc([C@H]4CC[C@H](C(=O)O)CC4)n4ncnc(N)c34)[nH]c12 [OSI-027] (partner 0.5 µM)
Summary of the method: as §1

[4] = compound: Cc1ccccc1C(C(=O)NC1CCCCC1)N(C(=O)Cn1ccnc1C)c1cccc(F)c1 [IDH-C35] + C[C@@H](Oc1cc(-c2cnn(C3CCNCC3)c2)cnc1N)c1c(Cl)ccc(F)c1Cl [Crizotinib] (partner 1 µM)
Summary of the method: as §1

Cell Line	relative viability ([1]; first compound 0.0025 µM)	relative viability ([1]; first compound 0.007906 µM)	relative viability ([1]; first compound 0.025 µM)	relative viability ([1]; first compound 0.07906 µM)	relative viability ([1]; first compound 0.25 µM)	relative viability ([2]; first compound 0.08 µM)	relative viability ([2]; first compound 0.253 µM)	relative viability ([2]; first compound 0.8 µM)	relative viability ([2]; first compound 8 µM)	relative viability ([3]; first compound 0.08 µM)	relative viability ([3]; first compound 0.253 µM)	relative viability ([3]; first compound 0.8 µM)	relative viability ([3]; first compound 8 µM)	relative viability ([4]; first compound 0.08 µM)	relative viability ([4]; first compound 0.253 µM)	relative viability ([4]; first compound 0.8 µM)	relative viability ([4]; first compound 2.53 µM)	relative viability ([4]; first compound 8 µM)	relative viability ([2]; first compound 2.53 µM)	relative viability ([3]; first compound 2.53 µM)
HCC-15	0.721	0.707	0.69	0.697	0.766	0.37	0.395	0.428	0.371	0.632	0.656	0.614	0.604	0.854	0.804	0.802	0.814	0.731	–	–
HCC-44	1.02	1	0.952	0.891	1.05	1.01	1.04	1.09	1.04	0.538	0.641	0.595	0.625	0.848	0.794	0.719	0.801	0.733	1.14	0.61
COR-L23	0.404	0.33	0.298	0.328	0.325	0.599	0.639	0.591	0.54	0.843	0.696	0.861	0.731	0.634	0.626	0.619	0.673	0.667	0.565	0.829
HCC-78	0.826	1	0.92	0.854	0.798	0.757	0.869	0.777	0.761	0.349	0.362	0.633	0.332	0.343	0.349	0.342	0.322	0.303	0.713	0.388
NCI-H727	0.813	0.762	0.747	0.782	0.568	0.376	0.357	0.34	0.372	0.805	0.474	0.464	0.592	0.853	0.734	0.826	0.916	0.954	0.393	0.588
NCI-H2087	0.67	0.661	0.598	0.727	0.701	0.211	0.226	0.264	0.197	0.59	0.518	0.537	0.532	0.91	0.898	0.843	0.902	0.841	0.265	–
BEN	0.868	0.709	0.684	0.806	0.712	0.954	1.04	1.02	1.16	0.308	0.318	0.298	0.261	0.932	0.738	0.803	0.942	0.861	1.16	0.328
LCLC-103H	0.797	0.735	0.762	0.753	0.773	0.704	0.672	0.727	0.7	0.458	0.487	0.473	0.457	1.01	1.07	1	1.07	0.987	0.656	0.428
EKVX	1.02	0.969	0.892	0.775	0.988	0.398	0.279	0.37	0.277	0.752	0.641	0.646	0.68	0.953	0.74	0.688	0.935	1.08	0.353	0.657
LXF-289	1.06	1	1.07	1.03	1.25	0.701	0.628	0.643	0.668	0.79	0.761	0.757	0.709	0.794	0.774	0.771	0.798	0.798	0.676	0.783
NCI-H650	0.415	0.45	0.345	0.41	0.454	1.03	0.935	0.861	0.914	0.558	0.571	0.466	0.509	0.671	0.677	0.9	–	0.689	–	–
NCI-H1650	0.826	0.823	0.759	0.79	0.797	0.548	0.599	0.614	0.504	0.667	0.593	0.637	0.571	0.796	0.978	0.965	0.914	0.923	0.644	0.659
NCI-H2085	0.736	0.686	0.704	0.72	0.752	0.634	0.493	0.571	0.457	0.772	0.929	0.722	0.638	0.808	0.749	0.877	0.954	0.781	0.729	0.741
LC-2-ad	0.748	0.659	0.702	0.658	0.782	0.87	0.923	0.954	0.905	0.9	0.908	0.806	0.899	0.463	0.454	0.426	–	0.485	0.874	–
COR-L 105	0.604	0.587	0.617	0.771	0.656	0.444	0.451	0.446	0.39	0.588	0.771	0.735	0.628	0.745	0.942	0.688	0.72	0.921	0.485	0.727
NCI-H1355	0.889	0.806	0.783	0.738	0.724	0.453	0.424	0.398	0.423	0.422	0.445	0.382	0.395	1.08	1.03	1.03	1.01	1.07	0.392	0.466

Cell Line	relative viability ([1]; first compound 0.0025 µM)	relative viability ([1]; first compound 0.007906 µM)	relative viability ([1]; first compound 0.025 µM)	relative viability ([1]; first compound 0.07906 µM)	relative viability ([1]; first compound 0.25 µM)	relative viability ([2]; first compound 0.08 µM)	relative viability ([2]; first compound 0.253 µM)	relative viability ([2]; first compound 0.8 µM)	relative viability ([2]; first compound 8 µM)	relative viability ([3]; first compound 0.08 µM)	relative viability ([3]; first compound 0.253 µM)	relative viability ([3]; first compound 0.8 µM)	relative viability ([3]; first compound 8 µM)	relative viability ([4]; first compound 0.08 µM)	relative viability ([4]; first compound 0.253 µM)	relative viability ([4]; first compound 0.8 µM)	relative viability ([4]; first compound 2.53 µM)	relative viability ([4]; first compound 8 µM)	relative viability ([2]; first compound 2.53 µM)	relative viability ([3]; first compound 2.53 µM)
H3255	0.555	0.56	0.52	0.546	0.576	0.699	0.692	0.536	0.59	0.554	0.534	0.581	0.647	0.898	0.9	0.897	0.773	0.848	0.548	0.661
NCI-H1993	0.964	0.957	0.947	0.844	0.912	0.479	0.586	0.632	0.645	0.522	0.532	0.57	0.555	0.888	0.874	0.833	0.743	0.903	0.542	0.505
NCI-H1734	0.663	0.635	0.576	0.511	0.53	0.656	0.811	0.603	0.616	0.643	0.621	0.564	0.597	0.69	0.729	0.623	0.638	0.729	0.661	0.6
HOP-62	0.408	0.434	0.545	0.425	0.515	0.395	0.353	0.424	0.384	0.895	0.801	0.76	0.78	0.839	1.04	0.832	–	0.925	0.33	0.79
LOU-NH91	0.912	0.877	0.925	0.956	0.926	0.804	0.785	0.781	0.803	0.742	0.76	0.743	0.732	0.741	0.754	0.722	0.743	0.751	0.742	0.716
ChaGo-K-1	0.466	0.42	0.414	0.404	0.435	0.897	0.878	0.944	0.899	0.604	0.523	0.529	0.572	1.16	1.05	1.09	0.923	1.09	0.844	0.637
NCI-H2228	0.609	0.745	0.786	0.786	0.993	0.456	0.559	0.458	0.546	0.729	0.687	0.55	0.535	0.418	0.457	0.51	0.496	0.506	0.836	0.586
PC-14	0.295	0.203	0.239	0.25	0.368	0.645	0.695	0.735	0.705	0.956	0.798	0.755	0.711	0.886	0.845	0.837	0.88	0.835	0.768	0.837
NCI-H1437	0.624	0.622	0.635	0.643	0.613	0.514	0.522	0.534	0.489	0.876	0.907	0.842	0.756	0.979	0.913	0.907	0.874	0.796	0.51	0.828
NCI-H460	0.419	0.516	0.418	0.355	0.459	0.165	0.133	0.176	0.0866	0.659	0.757	0.681	0.602	1	0.989	0.782	0.814	0.955	0.165	0.644
NCI-H1666	0.751	0.742	0.766	0.769	0.725	0.813	0.854	0.902	0.876	0.828	0.81	0.865	0.841	0.995	0.942	0.968	1	0.967	0.799	0.845
NCI-H1651	0.178	0.172	0.205	0.193	0.199	0.856	0.899	0.838	0.832	0.7	0.686	0.746	0.703	0.848	0.874	0.874	0.919	0.925	0.858	0.644
NCI-H1755	0.92	0.897	0.861	0.85	0.902	0.754	0.735	0.762	0.675	0.754	0.64	0.707	0.706	0.911	0.915	0.872	0.865	0.827	0.73	0.68
NCI-H661	0.72	0.738	0.681	0.782	0.77	0.592	0.575	0.548	0.561	0.756	0.68	0.725	0.746	0.969	0.973	–	0.975	0.971	0.557	0.695
HARA	1.1	0.76	0.689	0.542	0.81	0.562	0.649	0.601	0.76	0.607	0.735	0.484	0.405	1.02	0.986	0.997	1.09	1.05	0.56	–
NCI-H596	0.765	0.743	0.73	0.696	0.635	0.892	0.722	0.808	0.737	0.787	0.806	0.709	0.629	0.831	0.966	1.08	1.02	0.973	0.746	–
